Reference: patent publication US12233070B2, “Methods for treating benzodiazepine misuse/use disorder” (University of M[…] Center, priority 2020, dated 2025)

Test system: Sprague-Dawley rats
Experiment: Precipitated withdrawal/acute dependence: responding 60 min after diazepam bolus
Format: in vivo, rat
Details: all doses tested, vs ligand alone; FIGS. 11A and 11B
Description: Acute dependence can occur after single exposures to the benzodiazepine chlordiazepoxide, but not to an α2/3GABAA selective ligand (Fischer et al. 2013, Psychopharmacology 227: 347-54). Here, the extent to which TPA023B can precipitate withdrawal in rats following a single, large bolus dose of diazepam was studied. […] Once rates of responding were stable, doses of diazepam, the non-selective benzodiazepine antagonist flumazenil, and TPA023B were administered prior to the session.

CC(C)(O)c1cnn2c(-c3ccc(F)c(-c4c(F)cccc4C#N)c3)cnc2n1 [TPA023B]
rates of responding 60 min after 3.0 mg/kg diazepam (precipitated withdrawal): did not alter rates of responding
